The source of these data is PMC11385767 (Heliyon, 2024).

For assay [1], the target named is HLA-A*02:01 (Homo sapiens, UniProt P04439, D140Y/D185E/D98H/E176V/E277Q/G131W/G231S/I119V/I121R/I166T/I218V/L300P/L318F/N151K/N90K/P208A/P217A/Q86G/Q94H/R138H/R169H/T345S). Conditions: ref [20]; cited from earlier work.
Assay [2] has as its target HLA-A*11:01 on TAP-deficient T2 cell line (Homo sapiens, UniProt P04439, A114D/D185E/E176A/F33Y/L180Q/S129P/T187R). It is filed as cell-based.

“Also recorded” adds a separate entry of the source. No end group written: not given here.

Consider FVGEFFTDV, for which the “binding to HLA-A*02:01 (in words)” value in assay [1] was “positive binding”.

As for KLIMTQVSK [KLIMTQVSK], the “binding ability on T2 cell line (in words, rank)” value (from here on “binding ability on T2 cell line”) in assay [2] was “VITTDHLK ≈ STIHSIQY > KLIMTQVSK > TTDHLKFSK; also recorded: moderate binding affinity”.

Turning to STIHDSIQY [STIHDSIQY], the “binding ability on T2 cell line” value in assay [2] is listed as “no significant difference in IC50 value; also recorded: excellent binding affinity”.

Regarding TTDHLKFSK [TTDHLKFSK], in assay [2], the “binding ability on T2 cell line” value is given as “VITTDHLK ≈ STIHSIQY > KLIMTQVSK > TTDHLKFSK; also recorded: lowest binding affinity”.

On to VINTTDHLK [VINTTDHLK], for which the “binding ability on T2 cell line” value in assay [2] was “VITTDHLK ≈ STIHSIQY > KLIMTQVSK > TTDHLKFSK; also recorded: excellent binding affinity”.
